From patent US9775890B2, “Factor Xa inhibitor used with liver-derived progenitor cells” (UNIVERSITÉ CATHOLIQUE DE LOUVAIN, priority 2012, dated 2017)
Counter-ions that a name gives are not always drawn. Like-named read-outs stand apart in the source and are kept apart here.

What was measured:
cells with PCA = test: Analogous thromboelastometry experiments with different direct factor Xa inhibitors plus direct thrombin inhibitor; format: cell-based; conditions: present tense
Experimental: (§1) Measurements were performed on a ROTEM® delta analyser (Pentapharm, Munich, Germany). ROTEM® assesses the kinetics and quality of clot formation and clot lysis in real-time. The clotting time (CT) is defined as the period of time from the start of the analysis until the start of clot formation, normally until the 2 mm amplitude is reached. The clot formation time is defined as the period until the 20 mm amplitude is reached. The alpha angle is defined as the angle between the centre line and a tangent to the curve through the 2 mm amplitude point, which is the end of the CT. The maximum amplitude of the curve is defined as the maximum clot firmness. The maximum of lysis represents the maximum fibrinolysis detected during the measurement. We focused on CT.
(§2) Briefly, after a short rest period, 300 μl of whole blood was pipetted into a cup pre-warmed at 37° C. Suspended cells were subsequently added to whole blood (5×10exp5 cells if no specification). Twenty μl of trigger reagent containing tissue factor (TF) (Innovin, Siemens, Marburg, Germany. Final dilution 1:17000/0.35 pM) diluted in Owren buffer (Siemens, Marburg, Germany) was then added to the cell-blood mixture followed by the necessary addition of 20 μl of 0.2 M CaCl2. After calcium addition, measurements started automatically. The procoagulant activity (PCA) of cells was also determined without addition of Innovin.
For modulation of PCA assays, cells were suspended in albumin 5% with or without non-fractionated heparin (Heparin Leo®, Leo). […] Dose extrapolation was based on circulating blood volume according to weight (70 ml/kg).

hALPCs = test: Thromboelastometry (ROTEM) clotting time: modulation of procoagulant activity (PCA) of hALPCs in whole blood; format: cell-based, human; conditions: for Clotting time (CT) of whole blood with hALPCs in presence of anticoagulant drug: ROTEM, 300 μl citrated whole blood, 5×10exp5 hALPCs, added TF, heparin 10 U/mL in cell suspension, hirudin 5.7 μg/ml; for Control of hALPCs PCA by thrombin inhibitor, increased dose (2× or 5×): FIGS. 14 and 15, dose 2× or 5×
Experimental: as §1
as §2, with “Innovin. To ascertain the role of TF in this coagulation model, cells were pre-incubated at room temperature for 10 minutes with either 0.2 mg/mL mAb anti-human TF IgG1 (American Diagnostica) or 0.2 mg/mL mAb mouse IgG1 (clone11711.11; RnD Systems, Abingdon, United Kingdom) before extensive washing in albumin 5% and thromboelastometry assay.” for “Innovin.”
For modulation of PCA assays, cells were suspended in albumin 5% with or without non-fractionated heparin (Heparin Leo®, Leo). The following were then added to blood or plasma: rivaroxaban (Xarelto®, Bayer Schering) at a concentration of 1 μg/ml following published data (Samama et al. (2010), Thromb Haemost, 103(4):815-825), hirudin (Refludan®, Celgene Europe Limited) at a concentration of 5.7 μg/ml (clinical dose extrapolation 0.4 mg/kg), bivalirudin (Angiox®, The Medicines Company) at a concentration of 10.7 μg/ml (clinical dose extrapolation 0.75 mg/kg). Dose extrapolation was based on circulating blood volume according to weight (70 ml/kg).

hepatocytes = test: Thromboelastometry (ROTEM): modulation of PCA of hepatocytes in whole blood; format: cell-based, human
Experimental: as §1
as §2, with “Innovin. […]” for “Innovin.”

citrated whole blood = test: Thromboelastometry (ROTEM) of control blood in absence of cells with anticoagulant drug; parameters: species or system human; conditions: no cells
Experimental: as §1
as §2, with “Innovin. […]” for “Innovin.”

Compound | Modulation of PCA of cells by concomitant use of the direct factor Xa inhibitor with a direct thrombin inhibitor (hirudin or bivalirudin) (cells with PCA) | further results
O=C1CN(S(=O)(=O)/C=C/c2ccc(Cl)s2)CCN1Cc1cc2cnccc2[nH]1 [RPR-209685] | able to modulate PCA | –
CO[C@H]1O[C@H](COS(=O)(=O)O)[C@@H](O[C@@H]2O[C@@H](C(=O)O)[C@@H](O[C@H]3O[C@H](COS(=O)(=O)O)[C@@H](O[C@@H]4O[C@H](C(=O)O)[C@@H](O[C@H]5O[C@H](COS(=O)(=O)O)[C@@H](O)[C@H](O)[C@H]5NS(=O)(=O)O)[C@H](O)[C@H]4O)[C@H](OS(=O)(=O)O)[C@H]3NS(=O)(=O)O)[C@H](O)[C@H]2OS(=O)(=O)O)[C@H](O)[C@H]1NS(=O)(=O)O [fondaparinux, 2-deoxy-6-O-sulfo-2-(sulfoamino)-α-D-glucopyranosyl-(1→4)-O-β-D-glucopyranuronosyl-(1→4)-O-2-deoxy-3,6-di-O-sulfo-2-(sulfoamino)-α-D-glucopyranosyl-(1→4)-O-2-O-sulfo-α-L-idopyranouronosyl-(1→4)-O-methyl-2-deoxy-6-O-sulfo-2-(sulfoamino)-α-D-glucopyranoside, decasodium salt] | – | Clotting time (CT) of whole blood with hALPCs in presence of anticoagulant drug (hALPCs; bivalirudin 10.7 μg/ml): 209.7 ± 149.7 s
CC(=N)N1CCC(Oc2ccc(N(Cc3ccc4ccc(C(=N)N)cc4c3)S(=O)(=O)CC(=O)O)cc2)CC1 [YM-60828] | able to modulate PCA | –
N=C(N)N1CCc2ccc(OCC3(C(=O)O)CCN(c4ccncc4)CC3)cc2C1 [JTV-803] | able to modulate PCA | –
CC(=N)N1CC[C@H](Oc2ccc([C@H](Cc3ccc4ccc(C(=N)N)cc4c3)C(=O)O)cc2)C1 [DX9065a] | able to modulate PCA | –
CC(=N)N1CCC(c2ccc(NC(=O)CN(Cc3cccc(OCC(=O)O)c3)c3cccc(C(=N)N)c3)cc2)CC1 [KFA-144] | able to modulate PCA | –
COc1ccccc1N1CCN(C(=O)CNC(=O)C(Nc2cccc(C(=N)N)c2)c2ccccc2O[C@@H]2O[C@H](CO)[C@@H](O)[C@H](O)[C@H]2O)CC1 (stereo partly shown) [MCM-09] | able to modulate PCA | –
O=C(NC[C@H]1CN(c2ccc(N3CCOCC3=O)cc2)C(=O)O1)c1ccc(Cl)s1 [rivaroxaban, (S)-5-chloro-N-{[2-oxo-3-[4-(3-oxomorpholin-4-yl)phenyl]oxazolidin-5-yl]methyl}thiophene-2-carboxamide] | – | Modulation of hALPCs PCA (in words) (hALPCs; ROTEM whole blood, rivaroxaban 1 μg/ml, bivalirudin 10.7 μg/ml, heparin 10 U/mL): ineffective
CO[C@H]1C[C@@H](C(=O)Nc2ccc(-n3ccccc3=O)cc2F)N(C(=O)Nc2ccc(Cl)cc2)C1 [eribaxaban] | able to modulate PCA | –
C[C@@H](C(=O)N1CCOCC1)N1CC[C@H](NS(=O)(=O)/C=C/c2ccc(Cl)s2)C1=O [GW813893] | able to modulate PCA | –
antistasin | able to modulate PCA | –
hirudin | – | Control of hALPCs PCA by thrombin inhibitor, increased dose (2× or 5×) (hALPCs; ROTEM whole blood): only a partial control; Clotting time (CT) of whole blood with hALPCs in presence of anticoagulant drug (hALPCs; bivalirudin 10.7 μg/ml): 256.3 ± 11.8 s; Control of hepatocytes PCA (in words) (hepatocytes): controlled; Coagulation of blood in absence of cells (in words) (citrated whole blood; thromboelastometry stopped after 1800 sec): no measurable coagulation was observed
COc1ccc(C(=O)Nc2cccc(O)c2NC(=O)c2ccc(N3CCCN(C)CC3)cc2)cc1 [darexaban] | able to modulate PCA | –
CN1CCC(N2CCN(C(=O)[C@H](NC(=O)c3ccc4cc[nH]c4c3)c3ccccc3)CC2)CC1 [LY517717] | able to modulate PCA | –
CN(C)Cc1nccn1-c1ccc(NC(=O)c2cc(C(F)(F)F)nn2-c2ccc3onc(N)c3c2)c(F)c1 [razaxaban] | able to modulate PCA | –
O=C([C@H](O)CS(=O)(=O)c1ccc2cc(Cl)ccc2c1)N1CCC(N2CCCNC2=O)CC1 [letaxaban] | able to modulate PCA | –
bivalirudin | – | Control of hALPCs PCA by thrombin inhibitor, increased dose (2× or 5×) (hALPCs; ROTEM whole blood): only a partial control; Clotting time (CT) of whole blood with hALPCs in presence of anticoagulant drug (hALPCs; bivalirudin 10.7 μg/ml): 380.8 ± 114.7 s; Control of hepatocytes PCA (in words) (hepatocytes; ROTEM whole blood, FIG. 6D): controlled; CT of control blood (in absence of cells) (citrated whole blood; bivalirudin 10.7 μg/ml, unit not printed at the place (other CT in sec)): 1075.0±107.2
COc1ccc(NC(=O)c2ccc(C(=N)N(C)C)cc2)c(C(=O)Nc2ccc(Cl)cn2)c1 [betrixaban, N-(5-chloropyridin-2-yl)-2-([4-(N,N-dimethylcarbamimidoyl)benzoyl]amino)-5-methoxybenzamide] | able to modulate PCA | –
COc1ccc(-n2nc(C(N)=O)c3c2C(=O)N(c2ccc(N4CCCCC4=O)cc2)CC3)cc1 [apixaban, 1-(4-methoxyphenyl)-7-oxo-6-[4-(2-oxopiperidin-1-yl)phenyl]-4,5-dihydropyrazolo[5,4-c]pyridine-3-carboxamide] | able to modulate PCA | –
